Data from patent US6703229B2, “Aryl propenal double bond reductase” (Washington State University Research Foundation, priority 2000, dated 2004).

How the values were obtained:
[1] = system: aryl propenal double bond reductase (SEQ ID NO:2); assay: Enzyme assay of recombinant aryl propenal double bond reductase (HPLC of products); type: biochemical, Pinus taeda; details: for reduction of the aryl propenal substrate by the recombinant reductase: recombinant enzyme expressed from SEQ ID NO:1, in the presence of [4R]-NADPH
Description: Enzyme assays—Each non-radioactive assay (250 μl) consisted of buffer (50 mM Tris-HCl, pH 8.0), substrate (12.5 mM in DMSO, 10 μl), NADPH (25 mM in H2O, 10 μl), and the enzyme preparation (30 μl containing 5 mM DTT). Controls were performed using either denatured enzyme (boiled 96° C., 10 min) or in absence of enzyme. After 1 hour incubation at 30° C. with shaking, the reaction mixture was extracted with EtOAc (500 μl×2) with the EtOAc solubles combined and evaporated to dryness in vacuo. The EtOAc solubles were dissolved in CH3CN (10 μl) and then in 3% AcOH (90 μl), and subjected to reverse-phase HPLC with UV detection (280 nm).
Radioactive assays were performed in the same way as the non-radioactive assay with the following exceptions: the reaction was initiated by addition of [4S-^3H] or [4R-^3H]NADPH (25 mM in H2O, 666.7 kBq 10 μl). The EtOAc solubles were reconstituted in CH3CN/H2O and subjected to reverse-phase HPLC as described above with 0.5 ml fractions collected and an aliquot (100 μl) of each removed for scintillation counting to determine the level of incorporation of ^3H into the products.
Reversed phase HPLC separation of substrates and products—Separation of dehydrodiconiferyl alcohol (DDC), dihydrodehydrodiconiferyl alcohol (DDDC), dehydrodiconiferyl aldehyde (DDCA), dihydrodehydrodiconiferyl aldehyde (DDDCA) coniferyl alcohol (CA), dihydroconiferyl alcohol (DCA), coniferyl aldehyde (CAL), and dihydroconiferyl aldehyde (DCAL) was carried out using a reverse-phase column (Symmetry Shield RP8, 3.9×150 mm, Waters) as follows: CH3CN-3% AcOH in H2O (1:9) from 0 to 5 min, then linear gradient to 1:3 between 5 to 30 min, and finally linear gradient to 100% CH3CN over 25 min, at a flow rate of 1 ml/min.

reverse transcriptase = reverse transcriptase (Human immunodeficiency virus type 1 group M subtype B, UniProt P04585); details: cited from earlier work
cAMP-phosphodiesterase = details: cited from earlier work

COc1cc(/C=C/C=O)ccc1O [coniferyl aldehyde]
reduction of the aryl propenal substrate by the recombinant reductase [1]: capable of reducing coniferyl aldehyde to dihydroconiferyl aldehyde

CC(Cc1ccc(O)c(O)c1)C(C)Cc1ccc(O)c(O)c1 (stereo not shown) [nordihydroguaiaretic acid]
effectiveness against HIV (reverse transcriptase inhibitory activity) (reverse transcriptase): effective against HIV

COc1cc([C@@H]2Oc3c(OC)cc(/C=C/C=O)cc3[C@H]2CO)ccc1O [dehydrodiconiferyl aldehyde]
reduction of the aryl propenal substrate by the recombinant reductase [1]: regiospecifically reduce the double-bond

COc1cc(C[C@H]2C(=O)OC[C@@H]2Cc2ccc(OC)c(OC)c2)ccc1O [(−)-arctigenin]
effectiveness against HIV (reverse transcriptase inhibitory activity) (reverse transcriptase): effective against HIV

(−)-trachelogenin
effectiveness against HIV (reverse transcriptase inhibitory activity) (reverse transcriptase): effective against HIV

COc1cc(C[C@H]2COC(=O)[C@@H]2Cc2ccc(O)c(OC)c2)ccc1O [matairesinol]
inhibition of cAMP-phosphodiesterase (cAMP-phosphodiesterase): inhibit cAMP-phosphodiesterase

B1: aryl propenal double bond reductase (SEQ ID NO:2): Pinus taeda aryl propenal double bond reductase encoded by cDNA SEQ ID NO:1, expressed in E. coli (protein)
chain: MEQRVPNRELILVAYANEGPVTDSHLNIRETKLDLGSVGKDGSSGDVAVQNLWISVDPYLRQLMKESDDGLYLPSFPLNQAIRSILVGKVVASANPAFEVGDIVSGFYQVSEYAIVPRGDLMKIDTSVVKPSDYLGLLGMPALTAWAGFIIVGEPKPGDEVFVSAAAGSVGMLVGQLAKIKSCRVVGSAGSDQKVKLLKEFGFDDAFNYKCETDLDAALSRYFPRGIDIYFDNVGGRMLEAVLNHINMKARIPLCGMISQYNQEWKQRFGVRNLLNLVGKCAKMEGFMSGQYHHRMGEFFEEMTGYIKQGKIKYKEDVKVGLDSFLEAFNSMFTGENIGKPVIYLGPPLPK
enzymatic activity of the expressed reductase ([1]; expressed in E. coli, GST fusion removed): enzymatically active
